Source: paper PMC10572563, “Application of Pluronics for Enhancing Aqueous Solubility of Lipophilic Microtubule Destabilizing Compounds on the Sea Urchin Embryo Model” (International Journal of Molecular Sciences, 2023)
Several values for one entry are separate records, joined by “and”; a condition that tells them apart may be missing. Equal values may be shown once. Read-outs that look alike come from different tables or passages of the source.

Columns and labels:
[1] = test system: sea urchin embryos
Description: Toxic effects were assessed by exposing fertilized eggs (5−18 min after fertilization) to 2-fold decreasing concentrations of Pluronics. Embryo development was monitored at room temperature until the beginning of active feeding (four-arm mid-pluteus stage). The effects were detected at the following developmental stages: cleavage (2.5 and 5.5–6 h after fertilization), hatched mid-blastula (8.5–9.5 h), mesenchyme blastula (~11 h), prism (20–21 h), early pluteus (25–27 h), and four-arm pluteus (34–35 h) (Figure S2). The effects were estimated quantitatively as no observed effect concentration (NOEC), minimum effective concentration (MEC), and minimum lethal concentration (MLC).

[2] = pH 7.0; cited from earlier work
[3] = Precipitation in 1 mM intermediate solutions (visual and microscopic examination); type: physicochemical; conditions: for Appearance of 1 mM solution in 5% F127: 1 mM in 5% F127, room temperature; for Appearance of 1 mM/FSW intermediate solution: 1 mM in FSW
Description: Stock solutions of albendazole 1 and isoxazole 2 were prepared in DMSO and 2-pyrrolidone at 10 mM concentration, and stock solutions of chalcones 3 and 4 were prepared in DMSO at 10 mM concentration. […] The precipitation of compounds was analyzed via both visual and microscopic examination.

[4] = Aqueous solubility of chalcones in PBS or Pluronic solutions (UV absorbance of saturated supernatant); type: physicochemical; conditions: for Increase of solubility: Pluronic P123 concentration up to 10%, 25 °C; for Increase of solubility / solubility: PBS pH 7.4; for Enhancement of solubility in aqueous medium: in the presence of 5% Pluronic 123; for solubility: phosphate-buffered saline (PBS) without Pluronics, aqueous with cosolvent or surfactant or cyclodextrin, kinetic from dmso stock, without Pluronics
Description: The absorbance of chalcone solutions in DMSO was measured using an Ultrospec 1100 Pro UV/Vis spectrophotometer. […] To this end, 100 mg/mL solutions of 3 and 4 in DMSO were prepared and diluted 10-fold either with neat PBS or with Pluronic solutions of various concentrations. Dilution with PBS yielded the precipitation of the most part of the solute. The precipitated chalcones were removed via centrifugation at 9000 rpm for 5 min. The supernatant represented a saturated solution of the chalcone in the aqueous medium. Then, the supernatants were 10–1000-fold diluted with DMSO, their absorbance was measured at 367 nm for 3 or 350 nm for 4, and the aqueous solubility of chalcones was calculated using the εDMSO values obtained previously. The solubility values were measured in 2–4 repetitions and presented in the graphs as the mean ± SD for p < 0.05.

[5] = solvents in the in vivo sea urchin embryo assay

## O=C1CCCN1 [2-pyrrolidone, 2-Pyrrolidone]
[1]; [5]
  NOEC: 0.1 % v/v

## C[S+](C)[O-] [DMSO]
[1]; [5]
  NOEC: 0.2 % v/v

## CCO [EtOH]
[1]; in vivo
  NOEC: 0.5 % v/v

## CCCSc1ccc2nc(NC(=O)OC)[nH]c2c1 [compound 1, albendazole]
[2]
  Aqueous solubility: < 1 µg/mL
[3]
  Appearance of 1 mM solution in 5% F127: formed opaque 1 mM solution in 5% F127
  Appearance of 1 mM/FSW intermediate solution: formed a thick suspension of fine crystals

## COc1ccc(-c2cnoc2-c2cc(OC)c(OC)c(OC)c2)cc1 [compound 2]
[3]
  Appearance of 1 mM solution in 5% F127: remained clear throughout four days of storage at room temperature
  Appearance of 1 mM/FSW intermediate solution: opaque, followed by the precipitation of crystals in the bottom of the vial

## COc1ccc(/C=C/C(=O)c2cc(OC)c(OC)c(OC)c2)cc1O [compound 3]
[3]
  Appearance of 1 mM/FSW intermediate solution: clear without any visible signs of precipitation
[4]
  Increase of solubility: 13 fold
  Enhancement of solubility in aqueous medium: enhanced by an order of magnitude
  solubility: 344 µg/mL and 1000 µM

## COc1ccc(/C=C/C(=O)c2cc(OC)c(OC)c(OC)c2)cc1 [compound 4]
[3]
  Appearance of 1 mM/FSW intermediate solution: formed a thick suspension of fine crystals
[4]
  Increase of solubility: 19 fold
  Enhancement of solubility in aqueous medium: enhanced by an order of magnitude
  solubility: 88.7 µg/mL and 270 µM

## Pluronic P123
[1]; in vivo
  MEC relative to CMC: ~ 6 times
  Reduction of MEC: 4 times
